How the values were obtained:
Format in all cases: in vivo, swine
[1] = system: mother sows; test: Feed test in mother sows, coenzyme Q10 60 ppm in feeds for eight months (Example 1)
Protocol: About 160 mother sows from an actual swine farm were used and the study group was fed with feeds (coenzyme Q content in all feeds: 60 ppm) which were prepared by mixing coenzyme Q10 in normal feeds for mother sows (“ecobreed” during pregnancy, “ecolitter” during lactation). This feed test continued for eight months in which feeding to all the mother sows was simultaneously started and simultaneously finished. Before and after the test period, only the original feeds for mother sows were fed. In this test of feeding to the sows at pregnancy period, as the pregnancy period of sows continues 114 days and the interval to the next conception after parturition is about 31 days, it is apparent that in this test, coenzyme Q10 was administered to the mother sows in various stages of pregnancy or lactation which include a specific period in latter pregnancy, the entire pregnancy period, periods prior to or after mating, and a period from mating to early pregnancy. The mother sows were reared and managed in a common manner. In order to confirm that coenzyme Q10 was mixed in the feeds for mother sows, about 100 g of each coenzyme Q10-containing test feed were sampled from three points of different feeders after one week from the preparation thereof in the test period and the each sample was analyzed.

[2] = Coenzyme Q10 content in colostrum of mother sows by HPLC (Example 1); conditions: colostrum (first day) of mother sows, 60 ppm in feed, vs periods without administration
Protocol: About 160 mother sows from an actual swine farm were used and the study group was fed with feeds (coenzyme Q content in all feeds: 60 ppm) which were prepared by mixing coenzyme Q10 in normal feeds for mother sows (“ecobreed” during pregnancy, “ecolitter” during lactation). This feed test continued for eight months in which feeding to all the mother sows was simultaneously started and simultaneously finished. Before and after the test period, only the original feeds for mother sows were fed. […] Additionally, in order to analyze the coenzyme Q10 content in milk of mother sows during lactation, about 15 ml of colostrum (first day) were sampled in a 50-ml disposal tube from six mother sows during lactation in the periods in which coenzyme Q10 was administered to them or the periods in which coenzyme Q10 was not administered to them, and the samples were analyzed for coenzyme Q10 and the ratio of the reduced form and the oxidized form of coenzyme Q10 by HPLC.

[3] = system: piglets; test: Feeding coenzyme Q10 to piglets of coenzyme Q10-fed mother sows through weaning, piglet and fattening periods (Example 2); conditions: piglets fed about 80 ppm in weaning period feed, vs control group
Source text: The piglets of the mother sows to which coenzyme Q10 had been administered in the test of Example 1 were fed with the following feeds: a feed prepared by adding coenzyme Q10 at about 80 ppm to a normal feed (“Healthy Pig” (registered trademark)) for the weaning period; and feeds prepared by adding coenzyme Q10 at 40 ppm to normal feeds (“Take Five” for the former half of the piglet period, “Nobita kun” for the latter half of the piglet period, and “NIC Niku Buta EX” for the fattening period). The piglets were reared and managed in a common manner. In all the periods, control groups were set up for each to which coenzyme Q10 was not administered, and the control group was also reared in a common manner.
The “weaning period” refers to the period from the 3rd day until 26th day after birth, and the “piglet period” refers to the period from the 27th day until the 84th day after birth.

[4] = system: mother sows; test: Coenzyme Q10 fed to mother sows in middle or late pregnancy, growth of postnatal piglets (Example 3)
Source text: Test groups A to D were fed with feeds prepared by adding coenzyme Q10 at 100 ppm or 400 ppm to a normal feed for mother sows (crude protein 15.0% or more, crude fat 2.0% or more, crude fiber 5.0% or less, crude ash 8.0% or less, calcium 0.6% or more, phosphorus 0.4% or more, TDN 74.0% or more) in middle pregnancy (test groups A and B) or late pregnancy (test groups C and D), and were fed only with the normal feed for mother sows in the other periods. A control group was fed only with the normal feed for mother sows throughout the entire pregnancy period. Here, the term of “middle pregnancy” refers to the period from the 39th day until the 76th day after mating, and the term of “latter pregnancy” refers to the period (about 38 days) from the 77th day after mating until parturition. The test continued for about five and a half months. Also, coenzyme Q10 was not administered to the mother sows during lactation and the piglets born to the mother sows. As for head count of mother sows, each of control and test groups consisted of five mother sows per test, and the same test was repeated three times. Consequently, […]. Primiparous sows were not used, and only multiparous sows (para 2 to 10) were used for the test. A coenzyme Q10-containing premix was prepared by adding coenzyme Q10 to defatted rice bran to be a concentration of 1/60, and was mixed with the normal feed with a measuring spoon (15 g/spoon) to the above-mentioned coenzyme Q10 concentrations. The feeds thus prepared were fed in a common manner. The average amount of the feed per mother sow was 2.5 kg/day in all the groups. The mother sows and the piglets born to the mother sows were reared in accordance with rearing management standards of the farm. The piglets born to the mother sows of the respective groups were evaluated for weight at birth, weight at weaning, and the like.

[5] = system: mother sows; test: Coenzyme Q10 fed to mother sows in early, middle or latter pregnancy, farrowing rate and number of weaned piglets (Example 4); conditions: for Number of weaned piglets (average per mother sow): 100 ppm in feed of mother sows
Source text: Test groups E to G were fed with a feed prepared by adding coenzyme Q10 at a concentration of 100 ppm to a normal feed for mother sows (crude protein 15.0% or more, crude fat 2.0% or more, crude fiber 5.0% or less, crude ash 8.0% or less, calcium 0.6% or more, phosphorus 0.4% or more, TDN 74.0% or more) in early pregnancy period (test group […]), middle pregnancy period (test group F) or latter pregnancy period (test group G), and were fed only with the normal feed for mother sows in the other periods. A control group was fed only with the normal feed for mother sows throughout the entire pregnancy period. The “early pregnancy” refers to the period from mating until the 38th day, the “middle pregnancy” refers to the period from the 39th day until the 76th day after mating, and the “latter pregnancy” refers to the period (about 38 days) from the 77th day after mating until parturition. Although whether sows are pregnant can be determined by sonography generally on the 25th or 26th day after mating, the test feeding was started without checking whether the mother sows were pregnant in this test. Sows that were found not to be pregnant later were eliminated from the test. Coenzyme Q10 was not administered to the mother sows during lactation and piglets born to the mother sows. Each of control and test groups consisted of five mother sows per test, and the same test was repeated three times. Consequently, 15 sows in total were tested per group. Primiparous sows were not used, and only multiparous sows (para 2 to 10) were used for the test. A coenzyme Q10-containing premix was prepared by adding coenzyme Q10 to defatted rice bran to a concentration of 1/60. This premix was added to the normal feed with a measuring spoon (15 g/spoon) to the above-mentioned coenzyme Q10 concentrations. The feeds thus prepared were fed in a common manner. The amount of the feed fed to each mother sow was 2.5 kg/day in average in all the groups. The mother sows and piglets born to the mother sows were reared in accordance with rearing management standards of the farm. The respective groups were evaluated based on the number of piglets (the number of total births) per mother sow, and the number of living piglets among them (the number of live births), and the number of piglets that survived to weaning (the number of weaned piglets).

[6] = system: mother sows; test: Fertility of second mating of coenzyme Q10-fed mother sows (Example 5); conditions: 100 ppm in feed, four months, pregnancy determined on the 28th day after second mating
Protocol: A coenzyme Q10-fed test group was fed with a feed prepared by adding coenzyme Q10 at a concentration of 100 ppm to a normal feed for mother sows (Kvodo Shiryo Co., Ltd.) for a test period (four months). A control group was fed with only the normal feed for mother sows. The sows were tested for pregnancy on the 28th day after mating, and unfertilized sows were mated again. The fertility was evaluated as a pregnancy rate for three months from one month after the start of the test until the end of the test. Whether the sows were pregnant (fertilized) was determined by sonography or the like on the 28th day after first mating and second mating. The test group consisted of 952 mother sows, and the control group consisted of 992 mother sows.

[7] = system: mother sows; test: Interval of recurrent estrous of coenzyme Q10-fed mother sows (Example 6); conditions: 100 ppm in feed
Protocol: A coenzyme Q10-fed test group was fed with a feed prepared by adding coenzyme Q10 at a concentration of 100 ppm to a normal feed for mother sows (Kyodo Shiryo Co., Ltd.) for a test period (four months). A control group was fed with only the normal feed for mother sows. Estrous cycles were evaluated by observing whether sows were in estrus for three months from one month after the start of the test until the end of the test. The test group consisted of 1055 mother sows, and the control group consisted of 1022 sows.

[8] = 60 ppm in feed, vs periods in which coenzyme Q10 was not administered
[9] = piglets born to mother sows fed 60 ppm, vs piglets reared in a conventional manner
[10] = early pregnancy, 100 ppm, compared to the control group

COC1=C(OC)C(=O)C(C/C=C(\C)CC/C=C(\C)CC/C=C(\C)CC/C=C(\C)CC/C=C(\C)CC/C=C(\C)CC/C=C(\C)CC/C=C(\C)CC/C=C(\C)CCC=C(C)C)=C(C)C1=O [coenzyme Q10]
frequency of albinism [1, 8]: decreased | frequency of mummified [1, 8]: decreased | number of milk-fed piglets [1, 8]: increased | number of total births [1, 8]: increased | number of weaned piglets [1, 8]: increased | body weight of piglets after three weeks from birth [1, 9]: heavier | episodes of diarrhea in piglets [1, 9]: less episodes | coenzyme Q10 content in colostrum [2]: apparently higher | number of weaned piglets per mother sow [3]: larger | Weight at weaning (average, kg) ([4]; Test group A: middle pregnancy, 100 ppm in feed of mother sows): 8.37 kg | Weight at weaning (average, kg) ([4]; Test group B: middle pregnancy, 400 ppm in feed of mother sows): 8.26 kg | Weight at weaning (average, kg) ([4]; Test group C: late pregnancy, 100 ppm in feed of mother sows): 8.55 kg | Weight at weaning (average, kg) ([4]; Test group D: late pregnancy, 400 ppm in feed of mother sows): 8.51 kg | weight at birth ([4]; test groups (100 or 400 ppm, middle or late pregnancy) vs control group): not so different | Number of weaned piglets (average per mother sow) ([5]; Test group E: early pregnancy): 10.4 | Number of weaned piglets (average per mother sow) ([5]; Test group F: middle pregnancy): 9.6 | Number of weaned piglets (average per mother sow) ([5]; Test group G: late pregnancy): 9.7 | increase in the average number of weaned piglets per mother sow [5, 10]: not less than 1 | increase in the number of live births [5, 10]: not less than 1 | increase in the number of total births [5, 10]: not less than 1 | fertility of second mating (pregnancy rate) [6]: 94% | interval of recurrent estrous ([7]; four months): 5.59 days | shortening of the interval of recurrent estrous ([7]; test group vs control group): 0.33 days

Source: patent publication US20130136724A1, “PIG FEED, AND METHOD FOR FEEDING SAME” (Kaneka Corporation, priority 2010, published 2013)
